According to paper PMC6959841, “Kinetic Optimization of Lysine-Targeting Covalent Inhibitors of HSP72” (Journal of Medicinal Chemistry, 2019):
“Also recorded” adds a separate entry of the source.

Experiments:
HSP72 = conditions: read-out: KM for ATP; cited from earlier work
HSP72-NBD [1] = biological target: T1, HSP72-NBD (Homo sapiens, UniProt P0DMV8); test: HSP72-NBD nucleotide-derived FP-assay (probe displacement, App. Ki, time-dependent); format: binding
HSP72-NBD [2] = biological target: T1, HSP72-NBD; conditions: even at high concentrations; cited from earlier work
HSP72-NBD [3] = biological target: T1, HSP72-NBD; test: Covalent (kinetic) FP-assay; format: binding
HSP72-NBD [4] = biological target: T1, HSP72-NBD; test: Intact-protein mass spectrometry of covalent adduct formation; format: binding; conditions: 20 μM compound, 2.0 μM HSP72-NBD, 21 °C

T1 sequence (P0DMV8 2-386 limits assumed): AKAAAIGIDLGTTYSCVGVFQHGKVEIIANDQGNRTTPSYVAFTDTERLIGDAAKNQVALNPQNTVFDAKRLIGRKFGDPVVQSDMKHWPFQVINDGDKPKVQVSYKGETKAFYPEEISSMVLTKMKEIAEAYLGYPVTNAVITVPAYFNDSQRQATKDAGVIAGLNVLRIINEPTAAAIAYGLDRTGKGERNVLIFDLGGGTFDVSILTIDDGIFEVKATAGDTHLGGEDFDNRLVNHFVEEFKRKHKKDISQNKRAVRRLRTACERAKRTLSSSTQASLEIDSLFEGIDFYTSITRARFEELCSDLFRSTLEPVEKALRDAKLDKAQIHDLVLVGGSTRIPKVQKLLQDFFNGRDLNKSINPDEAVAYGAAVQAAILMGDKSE

In the case of `Nc1ncnc2c1ncn2[C@@H]1O[C@H](COP(=O)(O)OP(=O)(O)OP(=O)(O)O)[C@@H](O)[C@H]1O` [ATP], the Km (HSP72) is listed as about 1 µM.

In the case of `C=CC(=O)OCCC[C@H]1O[C@@H](n2c(NCc3ccc(Cl)cc3)nc3c(N)ncnc32)[C@H](O)[C@@H]1O` [Compound 2, 3-((2R,3S,4R,5R)-5-(6-amino-8-((4-chlorobenzyl)amino)-9H-purin-9-yl)-3,4-dihydroxytetrahydrofuran-2-yl)propyl acrylate], the Ki (HSP72-NBD [1]; Time 19 h) is reported as 7.2 µM, the Ki (HSP72-NBD [1]; Time 46 h) is reported as 3.7 µM and the Ki (HSP72-NBD [1]; Time […] (printed 0.08 3)) is reported as 17 µM. For the same molecule, the “exposure required for complete formation of the covalent complex by intact-protein MS” value (HSP72-NBD [2]) was over 24 h, the kinact (HSP72-NBD [3]; from kinact/KI and initial Ki, assuming KI = Ki) was 1.6e-05 s⁻¹ and the “t1/2^inf” value (HSP72-NBD [3]; ln 2/kinact) was 12 h.

With `Nc1ncnc2c1nc(NCc1ccc(Cl)cc1)n2[C@@H]1O[C@H](COCc2ccc(C(=O)Oc3ccc(F)cc3)cc2)[C@@H](O)[C@H]1O` [Compound 8, 4-fluorophenyl 4-((((2R,3S,4R,5R)-5-(6-amino-8-((4-chlorobenzyl)amino)-9H-purin-9-yl)-3,4-dihydroxytetrahydrofuran-2-yl)methoxy)methyl)benzoate] the “covalent-bond formation by intact-protein MS” value (HSP72-NBD [4]) was “no evidence of specific and selective covalent-bond formation”.

With `CC1(C)O[C@@H]2[C@H](O1)[C@@H](COC(=O)c1ccc(S(=O)(=O)F)cc1)O[C@H]2n1c(NCc2ccc(Cl)cc2)nc2c(N)ncnc21` [Compound 13, ((3aR,4R,6R,6aR)-6-(6-amino-8-((4-chlorobenzyl)amino)-9H-purin-9-yl)-2,2-dimethyltetrahydrofuro[3,4-d][1,3]dioxol-4-yl)methyl 4-(fluorosulfonyl)benzoate] the “covalent-bond formation by intact-protein MS” value (HSP72-NBD [4]) was “no reaction; also recorded: no reactivity”, the “reversible binding affinity” value (HSP72-NBD [1]) was “no reversible binding affinity” and the “time dependence of App. Ki / probe displacement curve” value (HSP72-NBD [1]; WT HSP72-NBD) was “no time-dependent displacement”.

In the case of `N#Cc1ccc(C(=O)OC[C@H]2O[C@@H](n3c(NCc4ccc(Cl)cc4)nc4c(N)ncnc43)[C@H](O)[C@@H]2O)cc1` [Compound 15, ((2R,3S,4R,5R)-5-(6-amino-8-((4-chlorobenzyl)amino)-9H-purin-9-yl)-3,4-dihydroxytetrahydrofuran-2-yl)methyl 4-cyanobenzoate], the “fold weaker/less potent than tight-binding reversible MMP 9” value (HSP72-NBD [1]) is reported as over 18 fold.

With `Nc1ncnc2c1ncn2[C@@H]1O[C@H](COC(=O)c2ccc(S(=O)(=O)F)cc2)[C@@H](O)[C@H]1O` [Compound 16, ((2R,3S,4R,5R)-5-(6-amino-9H-purin-9-yl)-3,4-dihydroxytetrahydrofuran-2-yl)methyl 4-(fluorosulfonyl)benzoate] the “fold weaker activity / decrease in covalent efficiency vs TCI 14” value (HSP72-NBD [3]) was 70 fold.
